Experimental data from US7045528B2, “Benzofused heterozryl amide derivatives of thienopyridines useful as therapeutic agents, pharmaceutical compositions including the same, and methods for their use” (Agouron Pharmaceuticals, Inc., priority 2002, dated 2006).
Read-outs that look alike come from different tables or passages of the source.

Experiments:
[1] = molecular target: T1, unphosphorylated VEGF-R2Δ50 (FLVK) (Homo sapiens, UniProt P35968, DEL940-989/E990V); assay: VEGF-R2 coupled spectrophotometric assay, unphosphorylated VEGF-R2Δ50 (FLVK); type: biochemical; conditions: for inhibition at 0.05 µM: 50 nM compound, read-out: FLVK (% inh @ 50 nM); for inhibition at 0.05 µM / Ki: unphosphorylated VEGF-R2Δ50; for inhibition at 0.1 µM: read-out: FLVK (% @ 100 nM)
T1 construct: VEGF-R2Δ50 contains residues 806–939 and 990–1171; made in house; host or cells: baculovirus/insect cell system
T1 sequence (P35968 with tags, fused parts or gaps DEL940-989/E990V limits assumed): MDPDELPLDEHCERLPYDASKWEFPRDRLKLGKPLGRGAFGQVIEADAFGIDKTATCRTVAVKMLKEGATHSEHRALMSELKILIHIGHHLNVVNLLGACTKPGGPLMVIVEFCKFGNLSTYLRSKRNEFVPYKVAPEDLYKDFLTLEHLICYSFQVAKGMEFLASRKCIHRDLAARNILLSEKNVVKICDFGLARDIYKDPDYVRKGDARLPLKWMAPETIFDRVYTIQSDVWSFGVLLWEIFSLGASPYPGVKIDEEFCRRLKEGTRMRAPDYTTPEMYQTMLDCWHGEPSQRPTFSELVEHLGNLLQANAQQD
Outline: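 Baculovirus-expressed human VEGF-R2Δ50 (kinase insert partly deleted, E990V), unphosphorylated form; ADP production coupled via PK/LDH to NADH oxidation, read at 340 nm. 20 mM poly(E4Y1), 3 mM ATP, 60 mM MgCl2, 2 mM MnCl2, 200 mM HEPES pH 7.5; 5–40 nM enzyme. Ki from Morrison tight-binding fit.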

[2] = system: human umbilical vein endothelial cells (HUVEC); assay: HUVEC+VEGF proliferation assay; type: cell-based; conditions: Homo sapiens, HUVEC; VEGF 6 ng/mL, 72 h, MTT
Outline: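 Exponentially growing passage 3–4 HUVEC were starved 24 h in F12K + 1% FBS, given compound (0.1% final DMSO) 1 h before 6 ng/mL final VEGF, then cultured 72 h. Proliferation was read as MTT dye reduction (4 h exposure), absorbance at 595 nm.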

Huvec = assay: bFGF Huvec proliferation; type: cell-based, human; conditions: Homo sapiens, HUVEC
Mouse PK assay = type: in vivo; conditions: 50 mg/kg, B6 female mice, plasma; for AUC / Cmax: mouse, po
Description: The pharmacokinetics (e.g., absorption and elimination) of drugs in mice were analyzed using the following experiment. Test compounds were formulated as a suspension in a 30:70 (PEG 400:acidified H2O) vehicle. This solution was administered orally (p.o.) and intraperitoneally (i.p.) at 50 mg/kg to two distinct groups (n=4) of B6 female mice. Blood samples were collected via an orbital bleed at time points: 0 hour (pre-dose), 0.5 hr, 1.0 hr, 2.0 hr, and 4.0 hr post dose. Plasma was obtained from each sample by centrifugation at 2500 rpm for 5 min. Test compound was extracted from the plasma by an organic protein precipitation method. For each time bleed, 50 μL of plasma was combined with 1.0 mL of acetonitrile, vortexed for 2 min. and then spun at 4000 rpm for 15 min. to precipitate the protein and extract out the test compound. Next, the acetonitrile supernatant (the extract containing test compound) was poured into new test tubes and evaporated on a hot plate (25° C.) under a steam of N2 gas. To each tube containing the dried test compound extract, 125 μL of mobile phase (60:40, 0.025 M NH4H2PO4+2.5 mL/L TEA:acetonitrile) was added. The test compound was resuspended in the mobile phase by vortexing and more protein was removed by centrifugation at 4000 rpm for 5 min. Each sample was poured into an HPLC vial for test compound analysis on an Hewlett Packard 1100 series HPLC with UV detection. From each sample, 95 μL was injected onto a Phenomenex-Prodigy reverse phase C-18, 150×3.2 mm column and eluted with a 45–50% acetonitrile gradient run over 10 min. Test-compound plasma concentrations (μg/mL) were determined by a comparison to standard curve (peak area vs. conc. μg/mL) using known concentrations of test compound extracted from plasma samples in the manner described above. Along with the standards and unknowns, three groups (n=4) of quality controls (0.25 μg/mL, 1.5 μg/mL, and 7.5 μg/mL) were run to insure the consistency of the analysis. […] The quantitated test samples were plotted for visual display using Kalidagraph software and their pharmacokinetic parameters were determined using WIN NONLIN software.

PDGFRβ = molecular target: T2, PDGFRβ (Homo sapiens, UniProt P09619); assay: PAE-PDGFRβ phosphorylation in PAE-PDGFRB cells assay; type: cell-based
T2 construct: expressed in transfected cells; host or cells: porcine aorta endothelial (PAE)-PDGFRβ cells
T2 sequence (P09619 33-1106): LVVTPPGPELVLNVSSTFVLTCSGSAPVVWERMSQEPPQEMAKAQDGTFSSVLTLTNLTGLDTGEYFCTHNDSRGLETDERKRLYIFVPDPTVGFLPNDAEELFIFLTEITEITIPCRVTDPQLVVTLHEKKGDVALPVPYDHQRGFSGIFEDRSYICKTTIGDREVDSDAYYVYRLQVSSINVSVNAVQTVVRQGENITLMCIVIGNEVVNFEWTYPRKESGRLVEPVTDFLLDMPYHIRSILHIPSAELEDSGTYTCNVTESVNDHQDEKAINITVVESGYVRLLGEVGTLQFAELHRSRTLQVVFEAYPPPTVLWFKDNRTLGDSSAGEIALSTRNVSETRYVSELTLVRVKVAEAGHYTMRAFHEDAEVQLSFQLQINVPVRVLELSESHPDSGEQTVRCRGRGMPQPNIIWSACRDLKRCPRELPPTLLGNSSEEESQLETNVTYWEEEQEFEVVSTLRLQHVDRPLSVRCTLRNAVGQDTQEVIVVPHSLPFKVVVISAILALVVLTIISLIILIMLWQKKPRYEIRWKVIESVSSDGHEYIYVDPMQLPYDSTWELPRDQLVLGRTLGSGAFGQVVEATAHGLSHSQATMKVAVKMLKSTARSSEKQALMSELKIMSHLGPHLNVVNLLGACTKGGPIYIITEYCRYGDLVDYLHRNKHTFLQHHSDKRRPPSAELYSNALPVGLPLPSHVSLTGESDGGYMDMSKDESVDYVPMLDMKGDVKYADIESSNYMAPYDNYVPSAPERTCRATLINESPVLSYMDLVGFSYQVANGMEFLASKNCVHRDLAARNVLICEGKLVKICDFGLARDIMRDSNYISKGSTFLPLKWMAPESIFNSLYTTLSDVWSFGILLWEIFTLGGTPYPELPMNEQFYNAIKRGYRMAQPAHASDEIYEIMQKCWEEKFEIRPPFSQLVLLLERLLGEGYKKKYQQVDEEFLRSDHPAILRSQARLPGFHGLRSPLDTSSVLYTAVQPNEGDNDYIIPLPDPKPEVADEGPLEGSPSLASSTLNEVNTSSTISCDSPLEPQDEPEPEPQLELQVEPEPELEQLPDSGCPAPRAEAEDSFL
Outline: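 PAE cells overexpressing human PDGFRβ, serum-starved 16 h (0.1% FBS), were given compound for 1 h at 37 °C (0.5% DMSO) and then stimulated with 1 μg/mL PDGF-BB plus 2 mM Na3VO4 for 8 min. Receptor autophosphorylation was read by capture ELISA (HRP-PY20, TMB, 450 nm); IC50 from 4-parameter fit.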

FGF-R1 = molecular target: T3, FGF-R1 (Homo sapiens, UniProt P11362, C488A/C584S/L457V); assay: FGF-R spectrophotometric assay; type: biochemical; conditions: percent inhibition at 100 nM; library amides from Example 101 (R101), crude mixtures in DMSO
T3 construct: starting from the endogenous methionine residue 456 to glutamate 766; made in house; host or cells: baculovirus vector expression system
T3 sequence (P11362 456-766 L457V/C488A/C584S): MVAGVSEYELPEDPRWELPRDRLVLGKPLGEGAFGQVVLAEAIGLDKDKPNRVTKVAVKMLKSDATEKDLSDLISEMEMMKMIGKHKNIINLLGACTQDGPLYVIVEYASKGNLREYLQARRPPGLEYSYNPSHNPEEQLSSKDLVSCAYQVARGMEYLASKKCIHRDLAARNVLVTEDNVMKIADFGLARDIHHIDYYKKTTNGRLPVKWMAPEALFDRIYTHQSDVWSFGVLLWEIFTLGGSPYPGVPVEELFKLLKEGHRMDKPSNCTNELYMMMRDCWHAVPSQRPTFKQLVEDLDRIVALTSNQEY
Description: FGF-R1 Construct for Assay:
The intracellular kinase domain of human FGF-R1 was expressed using the baculovirus vector expression system starting from the endogenous methionine residue 456 to glutamate 766, according to the residue numbering system of Mohammadi et al., Mol. Cell. Bio., 16, 977–989 (1996). In addition, the construct also has the following 3 amino acid substitutions: L457V, C488A, and C584S.
The spectrophotometric assay was carried out as described above for VEGF-R2, except for the following changes in concentration: FGF-R=50 nM, ATP=2 mM, and poly(E4Y1)=15 mM.

[3] = percent inhibition at 100 nM, library amides from Example 101 (R101), crude mixtures in DMSO
[4] = library amides from Example 101 (R101), crude mixtures in DMSO, read-out: PAE PDGFR autophos IC50
[5] = PAE cells overexpressing human PDGFRβ, PDGF-BB stimulated, read-out: PAE PDGFR autophos IC50 (nM) AVG

SMILES	inhibition at 0.05 µM [1]	Ki [1]	IC50 [2]	IC50 (Huvec)	mouse Cmin, po (Mouse PK assay)	AUC (Mouse PK assay)	Cmax (Mouse PK assay)	inhibition at 0.1 µM [1, 3]	IC50 (PDGFRβ; [4])	inhibition at 0.1 µM (FGF-R1)	inhibition at 0.1 µM [1]	IC50 (PDGFRβ; [5])
Cc1sc2cc(Oc3ccnc4cc(C(=O)N5CCC[C@H]5CO)sc34)ccc2c1C(=O)NC1CC1 [Example 8, 6-(2-[(S)-2-(hydroxymethyl)pyrrolidine-1-carbonyl]thieno[3,2-b]pyridin-7-yloxy)-2-methylbenzo[b]thiophene-3-carboxylic acid cyclopropylamide]	94%	0.403 nM	1.37 nM	504 nM	105 ng/mL	2350 ng·h/mL	666 ng/mL	–	–	–	–	–
Cc1oc2cc(Oc3ccnc4ccsc34)ccc2c1C(=O)Nc1cc(C2CC2)nn1C	–	–	–	–	–	–	–	56%	> 100 nM	3%	–	–
Cc1cc(C)c(O)c(NC(=O)c2c(C)oc3cc(Oc4ccnc5ccsc45)ccc23)c1	–	–	–	–	–	–	–	–	~100 nM	13%	87%	–
Cc1csc(NC(=O)c2c(C)oc3cc(Oc4ccnc5ccsc45)ccc23)n1	–	–	–	–	–	–	–	62%	> 100 nM	7%	–	–
Cc1oc2cc(Oc3ccnc4ccsc34)ccc2c1C(=O)Nc1ccc(N2CCOCC2)nc1 [drawing 369]	–	–	–	–	–	–	–	101%	57 nM	0%	–	–
Cc1ccc(NC(=O)c2c(C)oc3cc(Oc4ccnc5ccsc45)ccc23)c(O)c1	–	–	–	–	–	–	–	85%	~100 nM	0%	–	–
Cc1oc2cc(Oc3ccnc4ccsc34)ccc2c1C(=O)NCCCN1CCOCC1 [drawing 308]	–	–	–	–	–	–	–	103%	53 nM	2%	–	–
Cc1oc2cc(Oc3ccnc4ccsc34)ccc2c1C(=O)Nc1nccs1	–	–	–	–	–	–	–	90%	> 100 nM	20%	–	–
Cc1oc2cc(Oc3ccnc4ccsc34)ccc2c1C(=O)Nc1cc(-c2ccco2)n[nH]1	–	–	–	–	–	–	–	101%	> 100 nM	1%	–	–
CNC(=O)c1c(C)sc2cc(Oc3ccnc4cc(C(=O)N5C[C@H](OC)[C@H](OC)C5)sc34)ccc12 [Example 5, 6-(2-[meso-3,4-dimethoxypyrrolidine-1-carbonyl]thieno[3,2-b]pyridin-7-yloxy)-2-methylbenzo[b]thiophene-3-carboxylic acid methylamide]	73%	1.91 nM	1.55 nM	235 nM	256 ng/mL	12300 ng·h/mL	6740 ng/mL	–	–	–	–	–
Cc1oc2cc(Oc3ccnc4ccsc34)ccc2c1C(=O)NCCc1cccc(C(F)(F)F)c1	–	–	–	–	–	–	–	97%	> 100 nM	0%	–	–
CNC(=O)c1c(C)n(C)c2cc(Oc3ccnc4cc(C(=O)N5CCC(CNC(=O)OC(C)(C)C)C5)sc34)ccc12 (centres unmarked) [Example 44, tert-Butyl (1-{[7-({1,2-dimethyl-3-[(methylamino)carbonyl]-1H-indol-6-yl}oxy)thieno[3,2-b]pyridin-2-yl]carbonyl}pyrrolidin-3-yl)methylcarbamate]	87%	1.2 nM	1.78 nM	6040 nM	–	–	–	–	–	–	–	21.3 nM
CCc1oc2cc(Oc3ccnc4cc(C(=O)N5CCC[C@H]5CO)sc34)ccc2c1C(=O)NC [Example 97, 2-ethyl-6(2-[(S)-2-(hydroxymethyl)pyrrolidine-1-carbonyl]thieno[3,2-b]pyridin-7-yloxy)-benzofuran-3-carboxylic acid methylamide]	70%	4.84 nM	10 nM	223 nM	–	–	–	–	–	–	–	293 nM
Cc1oc2cc(Oc3ccnc4cc(-c5nccn5C)sc34)ccc2c1C(=O)NC(C)C [Example 83, 2-Methyl-6-[2-(1-methyl-1H-imidazol-2-yl)-thieno[3,2-b]pyridin-7-yloxy]-benzofuran-3-carboxylic acid isopropyl amide]	98%	0.2 nM	0.77 nM	142 nM	–	–	–	–	–	–	–	28.8 nM
CCCNC(=O)c1c(C)n(C)c2cc(Oc3ccnc4cc(-c5nccs5)sc34)ccc12 [Example 60, 1,2-Dimethyl-6-(2-thiazol-2-yl-thieno[3,2-b]pyridin-7-yloxy)1H-indole-3-carboxylic acid propylamide]	81%	2.17 nM	1.34 nM	1700 nM	–	–	–	–	–	–	–	38.3 nM
CNC(=O)c1c(C)n(C)c2cc(Oc3ccnc4cc(-c5nc(C(C)(C)O)cs5)sc34)ccc12 [Example 40, 6-{2-[4(1-Hydroxy-1-methyl-ethyl)-thiazol-2-yl]-thieno[3,2-b]pyridin-7-yloxy}-1,2-dimethyl-1H-indole-3-carboxylic acid methylamide]	77%	2.95 nM	1.12 nM	7800 nM	–	–	–	–	–	–	–	24.2 nM
Cc1c(C(=O)Nc2ccccn2)c2ccc(Oc3ccnc4cc(-c5nccs5)sc34)cc2n1C [Example 70, 1,2-Dimethyl-6-(2-thiazol-2-yl-thieno[3,2-b]pyridin-7-yloxy)-1H-indole-3-carboxylic acid pyridin-2-ylamide]	95%	0.43 nM	0.537 nM	3980 nM	–	–	–	–	–	–	–	47.1 nM
CCc1sc2cc(Oc3ccnc4cc(C(=O)N5CCC[C@H]5COC)sc34)ccc2c1C(=O)NC [Example 137, 2-Ethyl-6-[(2-{[(2S)-2-(methoxymethyl)pyrrolidin-1-yl]carbonyl}thieno[3,2-b]pyridin-7-yl)oxy]benzo[b]thiophene-3-carboxylic acid methylamide]	64%	5.1 nM	2.1 nM	294 nM	–	–	–	–	–	–	–	213 nM
CNC(=O)c1c(C)n(C)c2cc(Oc3ccnc4cc(-c5nc(CO)cs5)sc34)ccc12 [Example 26, 1,2-Dimethyl-6-(2-[4-(hydroxymethyl)thiazol-2-yl]thieno[3,2-b]pyridin-7-yloxy)-1H-indole-3-carboxylic acid methylamide]	83%	3.66 nM	0.74 nM	2230 nM	–	–	–	–	–	–	–	13 nM
Cc1sc2cc(Oc3ccnc4cc(C(=O)N5CC[C@@H](O)C5)sc34)ccc2c1C(=O)NC1CC1 [Example 121, 6[(2-{[(3R)-3-Hydroxypyrrolidin-1-yl]carbonyl}thieno[3,2-b]pyridin-7-yl)oxy]-2-methylbenzo[b]thiophene-3-carboxylic acid cyclopropylamide]	94%	0.2 nM	0.24 nM	100 nM	–	–	–	–	–	–	–	220 nM
